From patent publication US20250034098A1, “CRYSTALLINE SUBSTITUTED PYRAZINES AS PGI2 RECEPTOR AGONISTS” (NIPPON SHINYAKU CO., LTD., priority 2017, published 2025)

Legend:
[1] = Stability test of crystal forms of Compound B (Test Example 1); assay type: physicochemical; conditions: for thermodynamic stability of the crystal form: Test Example 1, storage at 90° C.; for crystal form transformation on storage: storage at 90° C.; for Crystal form after 14 days: stored at 90° C.
Procedure: Different crystal forms of Compound B were placed in glass bottles, respectively, and the glass bottles were hermetically sealed and stored at 90° C. Samples were taken out after 1 day, 5 days, and 14 days, and dissolved in methanol at a concentration of 1 mg/mL to determine related substances by HPLC. With respect to the crystals after 14 days, the crystal form was checked.

[2] = Solvent suspending test of form-I crystal in different solvents (Test Example 2); assay type: physicochemical; conditions: for Crystal form after 30 minutes at room temperature: stirring
Procedure: The form-I crystal of the present invention was mixed with different solvents, and stirring was performed at room temperature for 30 minutes. The formed crystals were obtained by filtration, and the crystal forms were determined.

PGI2 receptor = PGI2 receptor (Homo sapiens, UniProt P43119); conditions: cited from earlier work
[3] = 90° C., after 1 day, hermetically sealed glass bottle
[4] = 90° C., after 5 days, hermetically sealed glass bottle
[5] = 90° C., after 14 days, hermetically sealed glass bottle
[6] = hermetically sealed glass bottle

Chain of PGI2 receptor (P43119 whole entry, species assumed): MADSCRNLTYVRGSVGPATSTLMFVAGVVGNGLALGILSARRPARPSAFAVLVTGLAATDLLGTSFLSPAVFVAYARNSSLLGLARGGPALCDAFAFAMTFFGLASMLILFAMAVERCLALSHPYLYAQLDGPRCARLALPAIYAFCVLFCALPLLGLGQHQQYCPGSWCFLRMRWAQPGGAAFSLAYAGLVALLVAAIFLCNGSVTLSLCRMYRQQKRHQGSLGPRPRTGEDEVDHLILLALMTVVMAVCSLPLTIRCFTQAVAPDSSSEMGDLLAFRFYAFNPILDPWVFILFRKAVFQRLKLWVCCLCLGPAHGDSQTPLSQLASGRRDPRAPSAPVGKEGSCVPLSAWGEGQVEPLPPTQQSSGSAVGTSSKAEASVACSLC

Appearance [1, 3] | HPLC area (%) [1, 3] [%] | Appearance [1, 4] | HPLC area (%) [1, 4] [%] | Appearance [1, 5] | HPLC area (%) [1, 5] [%] | Appearance ([1]; Before storage) | HPLC area (%) ([1]; Before storage) | crystal form transformation on storage [1] | Crystal form after 14 days [1, 6] | Compound | further results
No change | 99.9 | No change | 99.9 | No change | 99.7 | Yellow crystal | 99.9 | gradually transformed into the form-II | Form-II | CC(C)N(CCCCOCC(=O)O)c1cnc(-c2ccccc2)c(-c2ccccc2)n1 [Form-III, 2-{4-[N-(5,6-diphenylpyrazin-2-yl)-N-isopropylamino]butyloxy}acetic acid] | thermodynamic stability of the crystal form ([1]; listed as form-III crystal): thermodynamically unstable
No change | 99.8 | No change | 99.8 | No change | 99.6 | White crystal | 99.8 | gradually transformed into the form-II | Form-I + Form-II | CC(C)N(CCCCOCC(=O)O)c1cnc(-c2ccccc2)c(-c2ccccc2)n1 [Form-I, 2-{4-[N-(5,6-diphenylpyrazin-2-yl)-N-isopropylamino]butyloxy}acetic acid] | crystal form transformation when suspended ([2]; all the solvents, room temperature): partially transformed into the form-II crystal of the present invention; Crystal form after 30 minutes at room temperature ([2]; solvent 2-propanol): Form-I + Form-II (1:10); Crystal form after 30 minutes at room temperature ([2]; solvent cyclohexane): Form-I + Form-II (1:1); Crystal form after 30 minutes at room temperature ([2]; solvent toluene): Form-I + Form-II (10:1); Crystal form after 30 minutes at room temperature ([2]; solvent water): Form-I + Form-II (10:1); thermodynamic stability of the crystal form ([1]; listed as form-I crystal): thermodynamically more stable
No change | 100 | No change | 100 | No change | 99.9 | Yellow crystal | 100 |  | Form-II | CC(C)N(CCCCOCC(=O)O)c1cnc(-c2ccccc2)c(-c2ccccc2)n1 [Form-II, 2-{4-[N-(5,6-diphenylpyrazin-2-yl)-N-isopropylamino]butyloxy}acetic acid] | thermodynamic stability of the crystal form when suspended ([2]; various solvents at room temperature): thermodynamically stable; thermodynamic stability of the crystal form [1]: thermodynamically stable; thermodynamic stability of the crystal form ([1]; listed as form-II crystal): thermodynamically more stable
 |  |  |  |  |  |  |  |  |  | CC(C)N(CCCCOCC(=O)O)c1cnc(-c2ccccc2)c(-c2ccccc2)n1 [Compound B, 2-{4-[N-(5,6-diphenylpyrazin-2-yl)-N-isopropylamino]butyloxy}acetic acid] | PGI2 receptor agonistic effect (PGI2 receptor): excellent
